Data from patent US20110016579A1, “Gene of transporter selective to mugineic acid-iron complex” (SUNTORY LIMITED, priority 2005, published 2011).

Experiments:
HvYS1 [1] = test: Growth of fet3fet4 yeast (DDY4 strain) expressing HvYS1 on different iron sources; format: cell-based, barley (Hordeum vulgare L.); details: 30° C., 4 days
Description: Since DDY4 strain is an yeast that is defective in the divalent iron-absorption system, is unable to grow in an iron-limiting medium (Eide, D. et al., Proc. Natl. Acad. Sci. USA, 1996, vol. 93, pp. 5624-5628) and is unable to grow by taking advantage of mugineic acid-iron (III) complex (Loulergue, C., Gene 1998, vol. 225, pp. 47-57), the yeast having an activity power for selectively absorbing mugineic acid-iron complex can grow on a medium supplemented with mugineic acid-iron(III) complex but the yeast having no above-mentioned activity power cannot grow on the medium.
(§1) Since double mutant fet3fet4 (DDY4 strain) of budding yeast (Saccharomyces cerevisiae) is defective in two genes responsible for absorption of divalent iron (fet3 (a gene for absorbing divalent iron after converting trivalent iron into divalent iron) and fet4 (a gene for absorbing divalent iron as it is)), the yeast can grow neither on an iron-limiting medium (Eide, D. et al., Proc. Natl. Acad. Sci. USA, 1996, vol. 93, pp. 5624-5628) nor by taking advantage of iron complexed with mugineic acid (Loulergue, C., Gene, 1998, vol. 225, pp. 47-57). To investigate the function of HvYS1 in iron transport, the present inventors have studied, using DDY4 strain into which HvYS1 cDNA has been introduced, whether the DDY4 strain in which the gene is expressed is able to grow on a medium containing Fe(III).MA as sole source of iron.
(§2) The following three plasmids were independently introduced into each of DDY4 strain and DY1457 (wild) strain: (1) a plasmid into which HvYS1 cDNA cloned at the NotI site of the expression vector pFL61 (by ATCC Co.) was inserted; (2) a plasmid into which ZmYS1 cDNA (Curie, C. et al., Nature, 2001, vol. 49, pp. 346-349) cloned in the same pFL61 vector was inserted; and (3) the pFL61 vector as a reference into which none of the above-mentioned genes was inserted.
Subsequently, the inventors conducted cultivation tests by mixing three different iron sources, or Fe(III).citrate, Fe(III).MA, and Fe(III).NA, with the medium in order to determine substrate selectivity, if any, of HvYS1. The yeast was cultivated in minimum media—Ura supplemented with 50 μM Fe(III).citrate, 10 μM Fe(III).MA, or 10 μM Fe(II).NA, and 10 μM FeCl2 or FeCl3 as a blank. Also, 10 μM of BPDS that is a potent chelating agent of divalent iron was added to the medium supplemented with 10 μM of Fe(III).MA in order to investigate whether the growth of the yeast is inhibited. Fe(III).MA was prepared according to von Wiren, N. et al. , Biochem. Biophys. Acta, 1998, vol. 1371, pp. 143-155. Nicotinamine was purchased from T. Hasegawa Co., and Fe(II).NA was prepared according to Schaaf, G. et al. , J. Biol. Chem., 2004, vol. 279, pp. 9091-9096. The yeast was cultivated at 30° C. for 4 days. Three solutions of the yeast culture (diluted to optical densities (OD) of 0.2, 0.02 and 0.002, respectively, at a wavelength of 600 nm) were spotted on a plate.

ZmYS1 = biological target: T1, ZmYS1 (Zea mays, UniProt Q9AY27); test: Growth of fet3fet4 yeast (DDY4 strain) expressing ZmYS1 on different iron sources; format: cell-based, maize; details: DDY4 strain expressing ZmYS1, 10 μM, FIG. 3
T1 construct: expressed in transfected cells; host or cells: Saccharomyces cerevisiae fet3fet4 double mutant (DDY4 strain), vector pFL61
T1 sequence (Q9AY27 1-682): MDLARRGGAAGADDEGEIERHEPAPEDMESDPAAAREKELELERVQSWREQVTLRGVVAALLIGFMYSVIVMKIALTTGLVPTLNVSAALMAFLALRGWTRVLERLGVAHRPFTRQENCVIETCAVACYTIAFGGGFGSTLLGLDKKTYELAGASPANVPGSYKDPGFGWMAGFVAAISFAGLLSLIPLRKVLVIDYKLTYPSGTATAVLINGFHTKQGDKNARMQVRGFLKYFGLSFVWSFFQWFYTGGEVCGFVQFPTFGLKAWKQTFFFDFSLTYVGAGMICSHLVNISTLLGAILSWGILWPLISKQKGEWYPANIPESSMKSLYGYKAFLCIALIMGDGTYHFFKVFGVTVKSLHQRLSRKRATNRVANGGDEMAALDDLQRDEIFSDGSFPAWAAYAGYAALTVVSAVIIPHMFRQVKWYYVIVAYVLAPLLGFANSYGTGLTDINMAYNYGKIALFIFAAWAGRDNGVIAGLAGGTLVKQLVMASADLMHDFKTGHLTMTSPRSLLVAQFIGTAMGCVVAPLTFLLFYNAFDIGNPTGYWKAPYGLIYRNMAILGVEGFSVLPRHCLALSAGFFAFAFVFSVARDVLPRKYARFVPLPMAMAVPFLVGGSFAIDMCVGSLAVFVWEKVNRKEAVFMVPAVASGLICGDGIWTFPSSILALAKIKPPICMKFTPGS
Description: as §1
as §2, with “inserted. […]” for “inserted.”

HvYS1 [2] = test: Electrophysiological activity (voltage clamp) in HvYS1-expressing Xenopus oocyte cells; format: cell-based, barley (Hordeum vulgare L.); details: final concentration of 50 μM, fixed voltage of −60 mV; compared with other mugineic acid-metal complexes and nicotianamine Fe(II) complex
Description: The activity power for selectively absorbing mugineic acid-iron complex may be also confirmed by observing cell membrane voltage changes using Xenopus oocyte cells. The voltage change of the cell membrane may be obtained by directly measuring the voltage difference between the inside and outside of the cell membrane by, for example, a membrane voltage clamp method, wherein the voltage change of the oocyte cell membrane occurs in accordance with the absorption of mugineic acid-iron complex via the transporter protein expressed in the oocyte cell after adding a solution containing mugineic acid-iron complex to the oocyte cell into which the transporter gene of the invention has been introduced. […]
Subsequently, the inventors have formed mugineic acid complexes of copper, zinc, nickel, manganese, and cobalt as substrates other than Fe(III).MA as in the case of iron in order to determine substrate selectivity, if any, of HvYS1 protein. The oocyte cells in which HvYS1 is expressed were set in a chamber filled with the ND-96 solution, and electrophysiological activity was measured after spraying 10 μL of each 5 mM substrate (final concentration of 50 μM). […] ORIGIN 6.1 software (by Microcal Software Co.) was used for programming and storage of voltage, and analysis of the recorded and stored data. […]
Target sequence in this assay (as listed by the source): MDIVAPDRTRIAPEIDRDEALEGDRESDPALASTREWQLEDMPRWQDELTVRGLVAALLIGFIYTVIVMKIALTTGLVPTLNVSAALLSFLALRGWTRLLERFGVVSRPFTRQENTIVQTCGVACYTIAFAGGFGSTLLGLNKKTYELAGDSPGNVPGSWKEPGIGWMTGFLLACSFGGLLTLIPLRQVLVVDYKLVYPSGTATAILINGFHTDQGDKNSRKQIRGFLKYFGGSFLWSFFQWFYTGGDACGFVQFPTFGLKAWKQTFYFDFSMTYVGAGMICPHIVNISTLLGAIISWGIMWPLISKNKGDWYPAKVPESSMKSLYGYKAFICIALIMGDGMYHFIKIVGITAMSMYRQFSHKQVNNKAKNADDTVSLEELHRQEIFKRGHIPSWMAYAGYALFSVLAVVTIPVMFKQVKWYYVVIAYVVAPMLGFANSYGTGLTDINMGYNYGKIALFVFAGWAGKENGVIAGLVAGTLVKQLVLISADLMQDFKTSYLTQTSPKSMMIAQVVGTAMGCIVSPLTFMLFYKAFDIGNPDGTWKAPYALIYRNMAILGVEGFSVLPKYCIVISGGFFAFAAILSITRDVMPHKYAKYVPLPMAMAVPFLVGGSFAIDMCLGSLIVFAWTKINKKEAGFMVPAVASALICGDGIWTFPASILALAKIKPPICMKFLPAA

Row | Molecule | growth of DDY4 strain expressing HvYS1 with the substance as sole iron source (HvYS1 [1]; 10 μM in minimum media -Ura) | transport of the iron complex by ZmYS1 (ZmYS1) | growth of DDY4 strain expressing HvYS1 in the presence of BPDS (HvYS1 [1]; 10 μM Fe(III).MA plus 10 μM BPDS (Fe(II) chelating agent)) | voltage change in HvYS1-expressing oocyte cells (HvYS1 [2]) | growth of DDY4 strain expressing HvYS1 with the substance as sole iron source (HvYS1 [1]; 50 μM in minimum media -Ura)
1 | [Cl][Fe]([Cl])[Cl] [FeCl3] | did not grow |  |  |  | 
2 | [Cl][Fe][Cl] [FeCl2] | did not grow |  |  |  | 
3 | mugineic acid-iron(III) complex [Fe(III).MA] | grew at the same level as DDY4 strain expressing ZmYS1 | transports | grew | overwhelmingly strong voltage change | 
4 | citric acid-iron complex (iron-ammonium citrate complex) [Fe(III).citrate] |  |  |  |  | did not grow
5 | nicotianamine-iron complex [Fe(II).NA] | does not absorb Fe(II).NA, or growth was strongly inhibited | transports |  |  | 
